Assay results as given in patent US9670227B2, “Thienopyrimidine derivatives, a process for their preparation and pharmaceutical compositions containing them” (LES LABORATOIRES SERVIER, priority 2013, dated 2017).
Where two headings read alike, the source gives them in different places.

Key:
[1] = test system: H929 multiple myeloma tumour line; experiment: In vitro cytotoxicity, Microculture Tetrazolium Assay; type: cell-based; conditions: H929 cells, 48 hours exposure, MTT, read-out: IC50 (μM) MTT H929
Experimental: The cytotoxicity studies were carried out on the H929 multiple myeloma tumour line.
The cells are distributed onto microplates and exposed to the test compounds for 48 hours.

[2] = target: Mcl-1 protein (UniProtKB primary accession number: Q07820) (Homo sapiens, UniProt Q07820); experiment: Inhibition of Mcl-1 by fluorescence polarisation, Method 1; type: binding; conditions: fluorescence polarisation; Method 1, or Method 2; read-out: IC50 (M) Mcl-1 FP
Mcl-1 protein, sequence (Q07820 whole entry): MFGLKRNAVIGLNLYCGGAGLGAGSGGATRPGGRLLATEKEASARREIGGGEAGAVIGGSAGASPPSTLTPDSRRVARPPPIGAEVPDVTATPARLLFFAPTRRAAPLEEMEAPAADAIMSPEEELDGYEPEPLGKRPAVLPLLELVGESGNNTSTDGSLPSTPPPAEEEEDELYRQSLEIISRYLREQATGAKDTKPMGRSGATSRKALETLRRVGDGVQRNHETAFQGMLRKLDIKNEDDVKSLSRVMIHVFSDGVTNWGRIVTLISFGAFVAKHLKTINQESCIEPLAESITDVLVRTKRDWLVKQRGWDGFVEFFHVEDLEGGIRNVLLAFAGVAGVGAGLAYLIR
Method in brief: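 Fluorescence polarisation competition with an 11-point compound dilution series (final DMSO 5%). Mcl-1 protein at 5 nM and fluorescein-labelled ligand at 1 nM (final) in 10 mM HEPES, 150 mM NaCl, 0.05% Tween 20, pH 7.4.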

SMILES	IC50 [2] [M]	IC50 ([1]; Homo sapiens, NCI-H929, 48 h) [µM]	IC50 [1] [µM]
CCn1nccc1COc1ccccc1CC(Oc1ncnc2sc(-c3ccc(F)c(F)c3)c(-c3ccc(OCCN4CCN(C)CC4)c(Cl)c3C)c12)C(=O)O [Example 708, (2R)-2-{[(5Sa)-5-{3-chloro-2-methyl-4-[2-(4-methylpiperazin-1-yl)ethoxy]phenyl}-6-(3,4-difluorophenyl)thieno[2,3-d]pyrimidin-4-yl]oxy}-3-{2-[(1-ethyl-1H-pyrazol-5-yl)methoxy]phenyl}propanoic acid]	9.6e-09	0.055	
Cc1c(-c2c(-c3cccc(F)c3)sc3ncnc(OC(Cc4ccccc4OC(C)C)C(=O)O)c23)ccc(OCCN2CCN(C)CC2)c1Cl [Example 709, (2R)-2-{[(5Sa)-5-{3-chloro-2-methyl-4-[2-(4-methylpiperazin-1-yl)ethoxy]phenyl}-6-(3-fluorophenyl)thieno[2,3-d]pyrimidin-4-yl]oxy}-3-[2-(propan-2-yloxy)phenyl]propanoic acid]	3.2e-08	0.518	
COc1ccc(COc2ccccc2CC(Oc2ncnc3sc(-c4cccc(F)c4)c(-c4ccc(OCCN5CCN(C)CC5)c(Cl)c4C)c23)C(=O)O)cc1 [Example 710, (2R)-2-{[(5Sa)-5-{3-chloro-2-methyl-4-[2-(4-methylpiperazin-1-yl)ethoxy]phenyl}-6-(3-fluorophenyl)thieno[2,3-d]pyrimidin-4-yl]oxy}-3-{2-[(4-methoxybenzyl)oxy]phenyl}propanoic acid]	2.4e-09	0.384	
Cc1c(-c2c(-c3ccc(F)cc3)sc3ncnc(OC(Cc4ccccc4OCc4ccnc(-c5ccccc5C(F)(F)F)n4)C(=O)O)c23)ccc(OCCN2CCN(C)CC2)c1Cl [Example 727, (2R)-2-{[(5Sa)-5-{3-chloro-2-methyl-4-[2-(4-methylpiperazin-1-yl)ethoxy]phenyl}-6-(4-fluorophenyl)thieno[2,3-d]pyrimidin-4-yl]oxy}-3-[2-({2-[2-(trifluoromethyl)phenyl]pyrimidin-4-yl}methoxy)phenyl]propanoic acid]	1.32e-09	0.013	
COc1cnccc1-c1nccc(COc2ccccc2CC(Oc2ncnc3sc(-c4ccc(F)cc4)c(-c4ccc(OCCN5CCN(C)CC5)c(Cl)c4C)c23)C(=O)O)n1 [Example 730, (2R)-2-{[(5Sa)-5-{3-chloro-2-methyl-4-[2-(4-methylpiperazin-1-yl)ethoxy]phenyl}-6-(4-fluorophenyl)thieno[2,3-d]pyrimidin-4-yl]oxy}-3-(2-{[2-(3-methoxypyridin-4-yl)pyrimidin-4-yl]methoxy}phenyl)propanoic acid]	9.48e-10	0.005	
COc1ccc(-c2nccc(COc3ccccc3CC(Oc3ncnc4sc(-c5ccc(F)cc5)c(-c5ccc(OCCN6CCN(C)CC6)c(Cl)c5C)c34)C(=O)O)n2)c(OC)c1 [Example 733, (2R)-2-{[(5Sa)-5-{3-chloro-2-methyl-4-[2-(4-methylpiperazin-1-yl)ethoxy]phenyl}-6-(4-fluorophenyl)thieno[2,3-d]pyrimidin-4-yl]oxy}-3-(2-{[2-(2,4-dimethoxyphenyl)pyrimidin-4-yl]methoxy}phenyl)propanoic acid]	9.48e-10	0.005	
COc1ccccc1Cn1nccc1COc1ccccc1CC(Oc1ncnc2sc(-c3ccc(F)cc3)c(-c3ccc(OCCN4CCN(C)CC4)c(Cl)c3C)c12)C(=O)O [Example 739, (2R)-2-{[(5Sa)-5-{3-chloro-2-methyl-4-[2-(4-methylpiperazin-1-yl)ethoxy]phenyl}-6-(4-fluorophenyl)thieno[2,3-d]pyrimidin-4-yl]oxy}-3-(2-{[1-(2-methoxybenzyl)-1H-pyrazol-5-yl]methoxy}phenyl)propanoic acid]	2.32e-09	0.093	
CCN1CCN(CCOc2ccc(-c3c(-c4ccc(F)cc4)sc4ncnc(OC(Cc5ccccc5OCc5ccnc(-c6ccccc6F)n5)C(=O)O)c34)c(C)c2Cl)CC1 [Example 745, (2R)-2-{[(5Sa)-5-{3-chloro-4-[2-(4-ethylpiperazin-1-yl)ethoxy]-2-methylphenyl}-6-(4-fluorophenyl)thieno[2,3-d]pyrimidin-4-yl]oxy}-3-(2-{[2-(2-fluorophenyl)pyrimidin-4-yl]methoxy}phenyl)propanoic acid]	9.48e-10	0.003	
CCN(CC)CCOc1ccc(-c2c(-c3ccc(F)cc3)sc3ncnc(OC(Cc4ccccc4OCc4ccnc(-c5ccccc5F)n4)C(=O)O)c23)c(C)c1Cl [Example 746, (2R)-2-{[(5Sa)-5-{3-chloro-4-[2-(diethylamino)ethoxy]-2-methylphenyl}-6-(4-fluorophenyl)thieno[2,3-d]pyrimidin-4-yl]oxy}-3-(2-{[2-(2-fluorophenyl)pyrimidin-4-yl]methoxy}phenyl)propanoic acid]	3.5e-09	0.111	

Second part, led by results:

IC50 [2] [M]	SMILES	IC50 ([1]; Homo sapiens, NCI-H929, 48 h) [µM]	IC50 [1] [µM]
1.4e-08	Cc1c(-c2c(-c3ccc(F)c(F)c3)sc3ncnc(OC(Cc4ccccc4OCc4ccnc(C(F)(F)F)n4)C(=O)O)c23)ccc(OCCN2CCN(C)CC2)c1Cl [Example 707, (2R)-2-{[(5Sa)-5-{3-chloro-2-methyl-4-[2-(4-methylpiperazin-1-yl)ethoxy]phenyl}-6-(3,4-difluorophenyl)thieno[2,3-d]pyrimidin-4-yl]oxy}-3-(2-{[2-(trifluoromethyl)pyrimidin-4-yl]methoxy}phenyl)propanoic acid]	0.042	
3.7e-09	Cc1c(-c2c(-c3cccc(F)c3)sc3ncnc(O[C@H](Cc4ccccc4O)C(=O)O)c23)ccc(OCCN2CCN(C)CC2)c1Cl [Example 711, (2R)-2-{[(5Sa)-5-{3-chloro-2-methyl-4-[2-(4-methylpiperazin-1-yl)ethoxy]phenyl}-6-(3-fluorophenyl)thieno[2,3-d]pyrimidin-4-yl]oxy}-3-(2-hydroxyphenyl)propanoic acid]		0.591
3.4e-08	COc1ccc(Cl)cc1CC(Oc1ncnc2sc(-c3ccc(Cl)o3)c(-c3ccc(OCCN4CCN(C)CC4)c(Cl)c3C)c12)C(=O)O [Example 714, (2R)-2-{[6-(5-chlorofuran-2-yl)-(5Sa)-5-{3-chloro-2-methyl-4-[2-(4-methylpiperazin-1-yl)ethoxy]phenyl}thieno[2,3-d]pyrimidin-4-yl]oxy}-3-(5-chloro-2-methoxyphenyl)propanoic acid]	0.188	
1.2e-08	COc1cc(F)ccc1CC(Oc1ncnc2sc(-c3ccc(Cl)o3)c(-c3ccc(OCCN4CCN(C)CC4)c(Cl)c3C)c12)C(=O)O [Example 718, (2R)-2-{[6-(5-chlorofuran-2-yl)-(5Sa)-5-{3-chloro-2-methyl-4-[2-(4-methylpiperazin-1-yl)ethoxy]phenyl}thieno[2,3-d]pyrimidin-4-yl]oxy}-3-(4-fluoro-2-methoxyphenyl)propanoic acid]	0.082	
1.46e-09	Cc1c(-c2c(-c3ccc(F)cc3)sc3ncnc(OC(Cc4ccccc4OCc4ccnc(-c5ccccc5OCc5ccccc5)n4)C(=O)O)c23)ccc(OCCN2CCN(C)CC2)c1Cl [Example 725, (2R)-3-[2-({2-[2-(benzyloxy)phenyl]pyrimidin-4-yl}methoxy)phenyl]-2-{[(5Sa)-5-{3-chloro-2-methyl-4-[2-(4-methylpiperazin-1-yl)ethoxy]phenyl}-6-(4-fluorophenyl)thieno[2,3-d]pyrimidin-4-yl]oxy}propanoic acid]	0.01	
1.27e-09	Cc1cc(-c2nccc(COc3ccccc3C[C@@H](Oc3ncnc4sc(-c5ccc(F)cc5)c(-c5ccc(OCCN6CCN(C)CC6)c(Cl)c5C)c34)C(=O)O)n2)cnc1C [Example 732, (2R)-2-{[(5Sa)-5-{3-chloro-2-methyl-4-[2-(4-methylpiperazin-1-yl)ethoxy]phenyl}-6-(4-fluorophenyl)thieno[2,3-d]pyrimidin-4-yl]oxy}-3-(2-{[2-(5,6-dimethylpyridin-3-yl)pyrimidin-4-yl]methoxy}phenyl)propanoic acid]		0.013
9.48e-10	COc1cc(-c2nccc(COc3ccccc3CC(Oc3ncnc4sc(-c5ccc(F)cc5)c(-c5ccc(OCCN6CCN(C)CC6)c(Cl)c5C)c34)C(=O)O)n2)ccn1 [Example 735, (2R)-2-{[(5Sa)-5-{3-chloro-2-methyl-4-[2-(4-methylpiperazin-1-yl)ethoxy]phenyl}-6-(4-fluorophenyl)thieno[2,3-d]pyrimidin-4-yl]oxy}-3-(2-{[2-(2-methoxypyridin-4-yl)pyrimidin-4-yl]methoxy}phenyl)propanoic acid]	0.007	
3.78e-09	COc1ccccc1-n1nccc1COc1ccccc1CC(Oc1ncnc2sc(-c3ccc(F)cc3)c(-c3ccc(OCCN4CCN(C)CC4)c(Cl)c3C)c12)C(=O)O [Example 738, (2R)-2-{[(5Sa)-5-{3-chloro-2-methyl-4-[2-(4-methylpiperazin-1-yl)ethoxy]phenyl}-6-(4-fluorophenyl)thieno[2,3-d]pyrimidin-4-yl]oxy}-3-(2-{[1-(2-methoxyphenyl)-1H-pyrazol-5-yl]methoxy}phenyl)propanoic acid]	0.103	
9.48e-10	COc1ccccc1-c1nccc(COc2ccccc2CC(Oc2ncnc3sc(-c4ccc(F)cc4)c(-c4ccc(OCCN5CCNCC5)c(Cl)c4C)c23)C(=O)O)n1 [Example 744, (2R)-2-{[(5Sa)-5-{3-chloro-2-methyl-4-[2-(piperazin-1-yl)ethoxy]phenyl}-6-(4-fluorophenyl)thieno[2,3-d]pyrimidin-4-yl]oxy}-3-(2-{[2-(2-methoxyphenyl)pyrimidin-4-yl]methoxy}phenyl)propanoic acid]	0.042	
